Key:
[1] = species: Mus musculus; assay: Effect on percent increase in seizure threshold was evaluated by maximal electroshock threshold (MEST) test in mouse; assay type: functional
[2] = tested on: Rattus norvegicus; assay: Tested for blood pressure fall on i.v. administration at a dose of 10 mg/kg infused over 30 minutes in pentobarbitone-anaesthetized hooded lister rats; assay type: functional; settings: route intravenous

SMILES: CC1(C)Oc2ccc(C#N)cc2[C@@H](NC(=O)c2ccc(F)cc2)[C@@H]1O
- Increase [1]: 17%

SMILES: CC1(C)CC(NC(=O)c2ccc(F)cc2)c2cc(C#N)ccc2O1 (configuration not stated)
- Increase [1]: 5%

SMILES: CC1(C)Oc2ccc(C#N)cc2[C@H](NC(=O)c2ccc(F)cc2)[C@H]1O
- Increase [1]: 41%

SMILES: CC1(C)Oc2ccc(C#N)cc2[C@@H](NC(=O)c2ccc(F)cc2)[C@H]1O
- Increase [1]: 0%
- BP [2]: 36%

SMILES: CC1(C)Oc2ccc(C#N)cc2[C@H](NC(=O)c2ccc(F)cc2)[C@@H]1O
- Increase [1]: 28%
- BP [2]: 5%

— ChEMBL document CHEMBL1128065, “Stereochemical preferences and requirement for the 3-hydroxyl group in novel anticonvulsant 4-fluorobenzoylamino benzopyrans” (1995)
